SMILES strings stand for the structures.

The test system of one data set is A2780 xenograft. The data set is described as follows: Scheduling experiment: virus with or without CB1954, tumour volume in A2780 xenografts. In kind it is in vivo, athymic nude mice. Particulars: CB1954 alone, no virus, 80 mg/kg intra-peritoneal. As for the experimental part: The inventors proceeded to investigate two doses of the virus in combination with CB1954. The doses selected were 10^5 PFU and 10^6 PFU. Both these doses caused some tumour growth delay in earlier experiments.
The prodrug is given as an 80 mg/kg intra-peritoneal injection, after dissolving the powdered form in 10% acetone and then making up the volume with peanut oil.
Mice were randomized into treatment groups (treatment regimes shown in Table 2) of 3 animals when tumour diameters were approximately 5 mm (tumour volume […]).
(§1) The treatment groups were administered with a single direct intratumoural injection of the virus and dose determined for that group. The virus was diluted PBS+10% serum. ‘No virus’ control groups received an intratumoural injection of 100 μl of PBS+10% serum. This day was designated as Experimental Day 0.
(§2) Injections of CB1954 were given to the appropriate groups at days 2, 10 and 15. A dose of 80 mg/kg—the equivalent of approx. 2 mg per mouse—was given. The powdered form of the CB1954 drug (from Sigma) was dissolved in acetone to 10% of the final volume (10 μl per 2 mg). The volume was then made up to 2 mg CB1954 in 100 μl using peanut oil. A syringe was used to mix the drug as peanut oil is thick and viscous. The drug was made up fresh every time.
The appropriate groups were then injected intra-peritoneal with this solution. […]

In a further data set the test system is C8161 cells. The class given is cell-based, human. Particulars: 50 μM CB1954 alone.
A short description of data set [1]: Scheduling experiment: tolerability of the injections (weight, behaviour). The class given is in vivo, athymic nude mice. The note with it: 80 mg/kg intra-peritoneal in 10% acetone/peanut oil. As for the experimental part: FIG. 26. Weight (as a measurement of health) in athymic nude mice with A2780 xenograft treated with either HSV 1790, HSV 1716, CB 1954 or a combination of them.
as §1
Some tumours bleed slightly after injection but not to a great degree. […] In all the tumours that bleed slightly, the following day the healing process had begun and within 3-5 days there was little evidence of any puncture wound on any tumour.
as §2
The appropriate groups were then injected intra-peritoneal with this solution. Control groups which were not receiving drug were injected intra-peritoneal with a 100 μl solution of 10% acetone in peanut oil.

For `NC(=O)c1cc(N2CC2)c([N+](=O)[O-])cc1[N+](=O)[O-]` [CB1954, 5-aziridin-1-yl-2,4-dinitrobenzamide], the “effect on tumour growth” value with A2780 xenograft was “little effect on tumour growth”. Further, the effect on cells result in the data set on C8161 cells is reported as “no effect”. In data set [1], the behaviour after injection result is on record as “slightly lethargic for a short period after the injection”, the body weight result is “did not lose any body weight” and the “swelling or irritation at site of injection” value is recorded as “No swelling or irritation at the site of injection”.
